Reference: patent US6984642B1, “Substituted phenylcyclohexane carboxylic acid amides and their use as adenosine uptake inhibitors” (Bayer Aktiengesellschaft, priority 1999, dated 2006)

Test system: adenosine-uptake system
Assay: Inhibition of adenosine uptake in rabbit erythrocytes
Type: cell-based
Details: Oryctolagus cuniculus, 0.25 h; rabbit erythrocyte preparation; concentration at which 50% of the adenosine originally employed is still present 15 min after addition; 30° C.
Procedure: 2. Inhibition of Adenosine Uptake in Rabbit Erythrocytes by the Compounds According to the Invention.
The capability of substances to influence the adenosine-uptake system is investigated by determining the inhibitory effect of the substances on functional adenosine uptake. For the functional adenosine-uptake test, an erythrocyte preparation from rabbit blood is used. The blood is drawn intravenously using citrate (3 ml Monovette 9NC from Sarstedt) as anticoagulant. The blood is centrifuged at 3000 g for 5 min and the erythrocytes are suspended in 10 mM MOPS/0.9% NaCl solution pH 7.4. The suspension is diluted to one hundredth of the original blood volume. In each case 990 μl of the suspension are admixed with 10 μl of a suitable concentration of the substance to be investigated, and the mixture is incubated at 30° C. for 5 min. 5 μl of a 4 mM adenosine solution are then added, and the mixture is incubated at 30° C. for another 15 min. The samples are then centrifuged at 3000 g for 5 min and in each case […] of the supernatant are admixed with 28 μl of 70% strength HClO4, allowed to stand in an ice bath for 30 min and centrifuged at 16,000 g for 3 min, and 350 μl of the sample are neutralized using 30 μl of 5N NaOH. 50 μl of the sample are applied to a column (Waters Symmetry C18 […] 3.9×150 mm). A Spherisorb ODS II 5 μm 4.6×10 mm column is used as precolumn. The mobile phase used is a gradient of 50 mM KH2PO^4/5 mM tributylamine pH 7 (mobile phase A) and a mixture of mobile phase A/methanol 1/1 (mobile phase B). The gradient is from 10-40% B, at a flow rate of 0.5 ml/min. The adenosine which is present is quantified by its absorption at 260 nm, as are the hyoxanthine and inosine formed.

| SMILES | IC50 [nM] |
| --- | --- |
| NC(=O)[C@@H](NC(=O)[C@@H]1CCCC[C@H]1c1ccc(Cn2c(N3CCNCC3)nc3ccccc32)cc1)c1ccccc1 [Example 10] | 25 |
| CC(C)N1CCN(c2nc3ccccc3n2Cc2ccc([C@@H]3CCCC[C@H]3C(=O)N[C@H](C(N)=O)c3ccccc3)cc2)CC1 [Example 8] | 20 |
| NC(=O)[C@@H](NC(=O)[C@@H]1CCCC[C@H]1c1ccc(Cn2c(CN3CCOCC3)nc3cccnc32)cc1)c1ccccc1 [Example 3, (S)-N-{{(1R, 2R)-{4-{2-[2-(Morpholin-4-yl-methyl)-1H-pyrido[2,3-d]-imidazol-1-yl]methyl}-phenyl}-cyclohex-1-yl}carbonyl}-phenylglycinamide] | 15 |
| NC(=O)[C@@H](NC(=O)[C@@H]1CCCC[C@H]1c1ccc(Cn2c(COCCO)nc3cccnc32)cc1)c1ccccc1 [Example 16] | 10 |
